# What was measured:
# Type in all cases: in vivo
# [1] = tested on: Dutch Belted rabbit corneas; assay: Histopathologic examination of harvested corneas (Example 1); settings: rabbits; eyes harvested Study Day 58
# Procedure: The animals were sacrificed and their eyes were harvested on Study Day 58. The animals in the study were euthanised using an intravenous injection of pentobarbital (2 mg/kg). The eyes of the animals were enucleated immediately after sacrifice using Castro-Viejo scissors. The corneas of the eyes were then removed and placed on the end of a glass tube and cut in half. These samples were then snap frozen in liquid nitrogen. […] The corneas were then sectioned, stained with hematoxylin/eosin and the slides were sent to a Board-certified Veterinary Pathologist for interpretation.
# Dutch Belted rabbit eyes = assay: Slit lamp biomicroscopy including Rose Bengal staining (Example 2)
# Procedure: This example further examines the safety of glyceraldehyde treatment in an animal model. The experiment described in Example 2 involved the study of six (6) pigmented Dutch Belted rabbits, two (2) in the control group and four (4) in glyceraldehyde treated experimental group. On Study Day 1, all rabbits received a thorough ophthalmic examination including slit lamp biomicroscopy and indirect ophthalmoscopy.
# The slit lamp biomicroscopy was performed substantially as described in Example 1. However, Rose Bengal stain was used here applied using Rose Bengal Ophthalmic Strips (Barnes-Hind, Inc., Sunnyvale, Calif.). This procedure involved a sterile strip wetted in 0.9% sodium chloride applied to the […] and sciera of an examined rabbit. The rabbit was allowed to blink applying the stain and then the treated eye was examined. Slit lamp biomicroscopy including Rose Bengal staining was performed on Study Days 1 (baseline), 8, 9, 11, 15, 34, 45, and 63. The animals were scored and the results recorded using the criteria described in Example 1.
# Following baseline examinations, the rabbits were anesthetized and received a corneal intrastromal injection of 500 IU of hyaluronidase in OD (right eye) only using the method described in Example 1.
# The administration of the test agents in the form of topical eyedrops began on Study Day 8. The control animals were administered a Balanced Saline Solution (BSS) (IOLAB Corporation, Claremont, Calif.) four times a day in each eye. The experimental animals received a 3% glyceraldehyde solution. The glyceraldehyde solution was prepared under sterile conditions at Advanced Corneal Systems (Irvine, Calif.) by dissolving 18 grams of glyceraldehyde in 600 mL of 0.9% sodium chloride USP, sterile filtering, and aliquotting the 3% glyceraldehyde (w/v) solution into 10 ml droppers. The experimental rabbits received one drop of glyceraldehyde solution four times a day using the technique described in Example 1. The rabbits received topical drops for a total of 63 days.
# [2] = tested on: eyes of non-sighted human patients; assay: Safety of enzymatic corneaplasty with hyaluronidase and topical 3% glyceraldehyde in two non-sighted human patients (Example 4)
# Procedure: The two patients (Nos. 1108 and 1105) each received an intrastromal injection of 500 IU of hyaluronidase. […] Patient 1108 wore the lenses for 21 days while patient 1105 wore the lenses for 50 days.
# Patient 1108 was treated according to the protocol outline above. After the 21 day lens wearing period had expired, the patient was instructed to apply two (2) drops of the 3% glyceraldehyde solution four times per day. The application of 3% glyceraldehyde continued for thirty-six (36) days after lens wear had ceased. Following termination of the 3% glyceraldehyde treatment, the patient was examined occasionally and the final examination was administered 126 days following the cessation of glyceraldehyde treatment.
# This patient was treated as described above and wore the RGP lenses for 50 days. Unlike patient 1108, patient 1105 was treated with the 3% glyceraldehyde solution for one (1) month while the patient was wearing the RGP contact lenses. The 3% glyceraldehyde solution was applied four times per day for a total period of 43 days.
# [3] = tested on: eyes of myopic human subjects; assay: Mild myopia study, group I: 50 IU hyaluronidase, corrective lenses, 3% glyceraldehyde (Example 9)
# Excerpt: Given the favorable results obtained in Example 8, an additional study was undertaken to test the safety and efficacy of the method of the present invention using a larger group of subjects. In this study, a group of subjects were selected and randomly separated into three test groups to test the safety and efficacy of using hyaluronidase and a glyceraldehyde solution for treating subjects with sub-optimal visual acuity. Groups one and two received an intrastromal injection of hyaluronidase (50 and 500 IU, respectively), while group three received a control injection of saline.
# Following a two week incubation period after the injection, the three groups were fitted with corrective lenses to optimize the visual acuity of the subjects. The corrective lenses were left in place for a period of time sufficient to alter the shape of the subjects' eyes so as to achieve an optimal visual acuity. This period of time was generally 2 days in length. Once an acceptable visual acuity was achieved, the subjects in the three groups received a topical 3% glyceraldehyde solution in the form of ophthalmic drops four times per day while wearing the corrective lenses. The glyceraldehyde treatment was generally administered for one month. Lens wear occurred from 8 to 12 hours during the day.
# At the end of the treatment period both the lens wear and the glyceraldehyde solution administration was terminated. The general health and visual acuity of the subjects was monitored from 3 to 5 months following treatment termination.
# Before beginning the experimental protocol, test subjects were examined initially to establish a baseline from which the future results of the treatment were compared. For each subject a medical history was taken and a detailed examination of the eyes was also performed. The eyes of each subject were tested to determine: refraction cell count, intraocular pressure (IOP), pachymetry, corneal topography and corneal elasticity. A slit-lamp examination was also performed to establish the health of the eye. Also, the presence of any general or ocular discomfort of the subjects was noted.
# Following the establishment of a baseline reading, group 1 subjects were administered a single intrastromal injection of 50 IU hyaluronidase prior to the orthokeratology treatment. Following 14 days of incubation, the subjects were fitted with corrective contact lenses for overnight wear. Subjects wore the corrective lenses night and day for a period of two (2) to seven (7) days or until visual 20/20 visual acuity was achieved. Subjects achieving an acceptable visual acuity (approximately 20/20) received an application of the topical 3% glyceraldehyde solution ophthalmic drops four times per day (8:00, 12:00, 16:00, and 20:00) for a period of 1 month in conjunction with daytime lens wear for stabilization. Lens wear lasted for 8 to 12 hours per day. The subjects were examined periodically during the glyceraldehyde treatment to monitor changes in the health of the treated eyes.
# At the end of the treatment period, the stabilizing lens were removed and the administration of the 3% glyceraldehyde solution was terminated. Following termination of the treatment, the subjects were examined immediately after treatment was terminated, once a week for the first four weeks after termination, and then monthly to measure changes in the visual acuity of the treated eyes. The health of the eye was also monitored. Sequelae characterized by the appearance or worsening of serious ocular symptoms or slit-lamp findings observed during these examinations was assessed. The proportions of subjects with such findings were analyzed.
smiles,measurement,setting,value
O=CC(O)CO (centres unmarked) [glyceraldehyde],histopathologic differences between corneas of control and treated groups,[1],no appreciable differences
same,day by which aqueous cell/flare was absent,Dutch Belted rabbit eyes; glyceraldehyde treated cohort had cell and flare at baseline,≤ 14 days
same,changes to the structure of the eyes as compared to controls,"Dutch Belted rabbit eyes; rabbits, 3% glyceraldehyde 1 drop four times a day, 63 days, 500 IU hyaluronidase in right eye only",no significant changes
same,effect on resolution of baseline aqueous cell and flare,"Dutch Belted rabbit eyes; rabbits, 3% glyceraldehyde drops four times a day",did not appear to impair the resolution of the cell and flare
same,level of SPK after termination of lens wear while continuing 3% glyceraldehyde,[2]; patient 1105,observed to decrease
same,level of superficial punctate keratopathy (SPK) during lens wear and 3% glyceraldehyde application,"[2]; patient 1105, 500 IU hyaluronidase, RGP lenses 50 days, drops four times per day, 43 days",not observed to increase
same,appearance of corneas at follow-up,"[2]; patient 1105, 98 days post cessation of glyceraldehyde treatment",appeared normal
same,appearance of corneas under slit-lamp biomicroscopy,"[2]; patient 1105, within 48 hours of ceasing the 43 day glyceraldehyde treatment",appeared normal under slit-lamp biomicroscopy and were free of any SPK
same,effects on the stroma or the endothelial cells during glyceraldehyde treatment,"[2]; patient 1108, 500 IU hyaluronidase, lenses 21 days, then 3% glyceraldehyde 2 drops four times per day, 36 days",did not indicate any deleterious effects
same,adverse reactions after completion of treatment,"[2]; patient 1108, after the 36 day protocol up to final examination 126 days after cessation",Nor were there any adverse reactions observed
same,overall observable negative results,[2]; two non-sighted human patients,no observable negative results
same,overall effect on correction of visual acuity,[3]; glyceraldehyde treatment with injection of 50 IU of hyaluronidase,effective in facilitating the correction
same,visual acuity at follow-up after end of treatment,"[3]; subject 001, 5-month follow up, baseline 20/80",20/40
same,visual acuity at follow-up after end of treatment,"[3]; subject 002, 4-month follow-up, baseline 20/300",20/125
same,visual acuity at follow-up after end of treatment,"[3]; subject 007, 3-month follow-up, baseline 20/200",20/50
same,visual acuity at follow-up after end of treatment,"[3]; subject 009, 3-month follow-up, baseline 20/200",20/63
same,visual acuity at follow-up,"[3]; subject 010R, time not stated, baseline 20/80",20/20
same,visual acuity at follow-up after end of treatment,"[3]; subject 015, 3-month follow-up, baseline 20/80",20/25
same,visual acuity at follow-up,"[3]; subject 022R, 3-week followup, baseline 20/62",20/80
same,visual acuity at follow-up,"[3]; subject 024R, time not stated, baseline 20/100",20/40
same,visual acuity at follow-up,"[3]; subject 028, 2-month point, baseline 20/300",20/125
same,visual acuity at follow-up,"[3]; subject 029, 2-month point, baseline 20/200",20/40
same,visual acuity at follow-up,"[3]; subject 033, 2-month point, baseline 20/300",20/125
